Key:
[1] = test system: mouse CAIA and CIA arthritis models; settings: cited from earlier work
[2] = test system: MRL/lpr lupus-prone mice model; settings: cited from earlier work
[3] = test system: DSS-induced colitis model; settings: DSS-induced colitis model in mice; cited from earlier work
β1c = molecular target: T1, β1c (Homo sapiens, UniProt P28072+Q99436); experiment: Cell-Based Proteasome Activity/Selectivity Assay (Ramos cells), substrate (LLE)2 Rh110; settings: highest concentration tested 20 μM
T1 construct: protease activity associated with the proteasome complex in cultured cells; endogenous in cells; host or cells: Ramos cells
How it was run: (§1)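 Ramos cells (5×10^4/well in DPBS) were treated with 4-fold compound dilutions (top 20 μM) for 30 min at 37 °C. A 2× mix of 0.025% digitonin, 20 μM of each Rh110 substrate and 0.5 M sucrose was added, then incubated 120 min at room temperature. Rh110 fluorescence was read at 500/519 nm.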

β1i = molecular target: T2, β1i (Homo sapiens, UniProt P28065+P40306); experiment: Cell-Based Proteasome Activity/Selectivity Assay (Ramos cells), substrate (PAL)2Rh110; settings: highest concentration tested 20 μM
T2 construct: protease activity associated with the proteasome complex in cultured cells; endogenous in cells; host or cells: Ramos cells
How it was run: as §1

[4] = test system: IP10 level in PBMCs stimulated with CpG Type A; experiment: PBMC IP-10 Assay; format: cell-based; settings: CpG Type A 2.5 μM
How it was run: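 Human PBMCs (~2×10^5/well) preincubated 60 min at 37° C. with titrated compound (1% DMSO final), then stimulated with CpG Type A (ODN 2216) at 2.5 μM final overnight. Supernatant IP-10 quantified by AlphaLISA; viability of remaining cells by ATP luminescence.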

β2c/2i = experiment: Cell-Based Proteasome Activity/Selectivity Assay (Ramos cells), substrate (KQL)2Rh110; settings: highest concentration tested 20 μM
How it was run: as §1

β5c = molecular target: T3, β5c (Homo sapiens, UniProt P20618+P28074); experiment: Cell-Based Proteasome Activity/Selectivity Assay (Ramos cells), substrate (WLA)2Rh110; settings: highest concentration tested 20 μM
T3 construct: protease activity associated with the proteasome complex in cultured cells; endogenous in cells; host or cells: Ramos cells
How it was run: as §1

β5i = molecular target: T4, β5i (Homo sapiens, UniProt P20618+P28062); experiment: Cell-Based Proteasome Activity/Selectivity Assay (Ramos cells), substrate (ANW)2Rh110; settings: highest concentration tested 20 μM, read-out: Ic50 ramos:ac-(anw)2-r110
T4 construct: protease activity associated with the proteasome complex in cultured cells; endogenous in cells; host or cells: Ramos cells
How it was run: as §1

Row | Compound | IC50 (β1c) [µM] | IC50 (β1i) [µM] | IC50 (β2c/2i) [µM] | IC50 (β5c) [µM] | IC50 (β5i) [µM] | disease score [1] | disease progression [2] | plasma cells numbers and levels of anti-dsDNA IgG [2] | inflammation and tissue destruction [3] | EC50 [4] [µM]
1 | COc1ccc(C[C@H](NC(=O)[C@H](C)NC(=O)CN2CCOCC2)C(=O)N[C@@H](Cc2ccccc2)C(=O)[C@@]2(C)CO2)cc1 [PR-957] | – | – | – | – | – | significantly decreased | prevented | reduced | reduced | –
2 | COCCNC(=O)C(=O)[C@H](Cc1ccccc1)NC(=O)[C@H](Cc1c[nH]c2ccccc12)NC(=O)[C@H](C)NC(=O)OCc1ccccc1 [Example 33, {(S)-1-[(S)-1-[(S)-1-Benzyl-2-(2-methoxy-ethylcarbamoyl)-2-oxo-ethylcarbamoyl]-2-(1H-indol-3-yl)-ethylcarbamoyl]-ethyl}-carbamic acid benzyl ester] | 17.5 | 0.205 | > 20 | 0.597 | 0.014 | – | – | – | – | 1.38
3 | CCCC[C@H](NC(=O)[C@H](Cc1c[nH]c2ccccc12)NC(=O)[C@H](C)NC(=O)C1=C(C)c2ccccc2C1)C(=O)C(=O)N[C@H](C)c1ccccc1 [Example 8] | 11.1 | 0.504 | > 20 | 0.771 | 0.033 | – | – | – | – | 1.78
4 | CCCC[C@H](NC(=O)[C@H](CC(C)C)NC(=O)[C@@H](NC(=O)[C@H](Cc1ccccc1C)NC(C)=O)C(C)(C)C)C(=O)C(=O)NCc1ccccc1 [Example 1, (S)-3-{(S)-2-[(S)-2-((S)-2-Acetylamino-3-o-tolyl-propionylamino)-3,3-dimethyl-butyrylamino]-4-methyl-pentanoylamino}-2-oxo-heptanoic acid benzylamide] | 3.55 | 0.91 | 10.6 | 0.45 | 0.146 | – | – | – | – | 2.05
5 | COc1ccc(C[C@H](NC(=O)[C@H](C)NC(=O)c2cc(C)on2)C(=O)N[C@@H](Cc2ccccc2)C(=O)C(=O)NCc2ccccc2)cc1 [Example 21, 5-Methyl-isoxazole-3-carboxylic acid {(S)-1-[(S)-1-((S)-1-benzyl-2-benzylcarbamoyl-2-oxo-ethylcarbamoyl)-2-(4-methoxy-phenyl)-ethylcarbamoyl]-ethyl}-amide] | > 20 | 0.21 | > 20 | 0.765 | 0.007 | – | – | – | – | 3.49
6 | CNC(=O)C(=O)[C@H](Cc1ccccc1)NC(=O)[C@H](Cc1c[nH]c2ccccc12)NC(=O)[C@H](C)NC(=O)OCc1ccccc1 [Example 31, {(S)-1-[(S)-1-((S)-1-Benzyl-2-methylcarbamoyl-2-oxo-ethylcarbamoyl)-2-(1H-indol-3-yl)-ethylcarbamoyl]-ethyl}-carbamic acid benzyl ester] | 13.1 | 0.244 | > 20 | 0.738 | 0.034 | – | – | – | – | 1.18
7 | CCCC[C@H](NC(=O)[C@H](Cc1c[nH]c2ccccc12)NC(=O)[C@H](C)NC(=O)C1=C(C)c2ccccc2C1)C(=O)C(=O)NCc1ccccc1 [Example 5, 3-Methyl-1H-indene-2-carboxylic acid {(S)-1-[(S)-1-((S)-1-benzylaminooxalyl-pentylcarbamoyl)-2-(1H-indol-3-yl)-ethylcarbamoyl]-ethyl}-amide] | 3.35 | 0.142 | > 20 | 0.56 | 0.018 | – | – | – | – | 1.22

Now from value to compound, other results behind:

Row | IC50 (β1c) [µM] | IC50 (β1i) [µM] | IC50 (β2c/2i) [µM] | IC50 (β5c) [µM] | IC50 (β5i) [µM] | Compound | disease score [1] | disease progression [2] | plasma cells numbers and levels of anti-dsDNA IgG [2] | inflammation and tissue destruction [3] | EC50 [4] [µM]
8 | > 20 | 0.234 | > 20 | 0.055 | 0.003 | COc1ccc(C[C@H](NC(=O)[C@H](C)NC(=O)C2Cc3ccccc3C2)C(=O)N[C@@H](Cc2ccccc2)C(=O)C(=O)NCc2ccccc2)cc1 [Example 19, Indan-2-carboxylic acid {(S)-1-[(S)-1-((S)-1-benzyl-2-benzylcarbamoyl-2-oxo-ethylcarbamoyl)-2-(4-methoxy-phenyl)-ethylcarbamoyl]-ethyl}-amide] | – | – | – | – | 0.695
9 | > 20 | 0.738 | > 20 | 0.157 | 0.015 | CC1=C(C(=O)N[C@@H](C)C(=O)N[C@@H](CCS(C)(=O)=O)C(=O)N[C@@H](Cc2ccccc2)C(=O)C(=O)NCc2ccccc2)Cc2ccccc21 [Example 20, 3-Methyl-1H-indene-2-carboxylic acid {(S)-1-[(S)-1-((S)-1-benzyl-2-benzylcarbamoyl-2-oxo-ethylcarbamoyl)-3-methanesulfonyl-propylcarbamoyl]-ethyl}-amide] | – | – | – | – | 1.64
10 | 18.1 | 0.968 | > 20 | 0.014 | 0.004 | C[C@H](NC(=O)C1Cc2ccccc2C1)C(=O)N[C@@H](CCc1ccccc1)C(=O)N[C@@H](Cc1ccccc1)C(=O)C(=O)NCc1ccccc1 [Example 42, Indan-2-carboxylic acid {(S)-1-[(S)-1-((S)-1-benzyl-2-benzylcarbamoyl-2-oxo-ethylcarbamoyl)-3-phenyl-propylcarbamoyl]-ethyl}-amide] | – | – | – | – | 0.379
11 | 12.5 | 0.569 | 10 | 2.48 | 0.047 | C[C@H](NC(=O)c1ccnn1C)C(=O)N[C@@H](Cc1c[nH]c2ccccc12)C(=O)N[C@@H](Cc1ccccc1)C(=O)C(=O)NCc1ccccc1 [Example 30, 2-Methyl-2H-pyrazole-3-carboxylic acid {(S)-1-[(S)-1-((S)-1-benzyl-2-benzylcarbamoyl-2-oxo-ethylcarbamoyl)-2-(1H-indol-3-yl)-ethylcarbamoyl]-ethyl}-amide] | – | – | – | – | 4.09
12 | > 20 | 8.92 | > 20 | 5.77 | 0.176 | C[C@H](NC(=O)c1cc(C(F)(F)F)nn1C)C(=O)N[C@@H](Cc1ccccc1)C(=O)N[C@@H](Cc1ccccc1)C(=O)C(=O)NCc1ccccc1 [Example 55, 2-Methyl-5-trifluoromethyl-2H-pyrazole-3-carboxylic acid {(S)-1-[(S)-1-((S)-1-benzyl-2-benzylcarbamoyl-2-oxo-ethylcarbamoyl)-2-phenyl-ethylcarbamoyl]-ethyl}-amide] | – | – | – | – | 3.89
13 | 18.3 | 0.257 | > 20 | 0.192 | 0.003 | C[C@H](NC(=O)C1Cc2ccccc2C1)C(=O)N[C@@H](Cc1ccccc1)C(=O)N[C@@H](Cc1ccccc1)C(=O)C(=O)NCc1ccccc1 [Example 43, Indan-2-carboxylic acid {(S)-1-[(S)-1-((S)-1-benzyl-2-benzylcarbamoyl-2-oxo-ethylcarbamoyl)-2-phenyl-ethylcarbamoyl]-ethyl}-amide] | – | – | – | – | 0.784
14 | 10.3 | 1.53 | > 20 | 2.35 | 0.221 | C[C@H](NC(=O)N1Cc2ccccc2C1)C(=O)N[C@@H](Cc1ccccc1)C(=O)N[C@@H](Cc1ccccc1)C(=O)C(=O)NCc1ccccc1 [Example 52, 1,3-Dihydro-isoindole-2-carboxylic acid {(S)-1-[(S)-1-((S)-1-benzyl-2-benzylcarbamoyl-2-oxo-ethylcarbamoyl)-2-phenyl-ethylcarbamoyl]-ethyl}-amide] | – | – | – | – | 4.5
15 | 17.5 | 0.499 | > 20 | 1.93 | 0.105 | COc1ccc(C[C@H](NC(=O)[C@H](C)NC(=O)c2cn3ccccc3n2)C(=O)N[C@@H](Cc2ccccc2)C(=O)C(=O)NCc2ccccc2)cc1 [Example 49, Imidazo[1,2-a]pyridine-2-carboxylic acid {(S)-1-[(S)-1-((S)-1-benzyl-2-benzylcarbamoyl-2-oxo-ethylcarbamoyl)-2-(4-methoxy-phenyl)-ethylcarbamoyl]-ethyl}-amide] | – | – | – | – | 4.37
16 | > 20 | 9.84 | > 20 | 5.18 | 0.021 | C[C@H](NC(=O)OCc1ccccc1)C(=O)N[C@@H](Cc1ccc(Cl)cc1)C(=O)N[C@@H](Cc1ccccc1)C(=O)C(=O)NCc1ccccc1 [Example 51, {(S)-1-[(S)-1-((S)-1-Benzyl-2-benzylcarbamoyl-2-oxo-ethylcarbamoyl)-2-(4-chloro-phenyl)-ethylcarbamoyl]-ethyl}-carbamic acid benzyl ester] | – | – | – | – | 2.59

— patent US20150274777A1, “KETOAMIDE IMMUNOPROTEASOME INHIBITORS” (HOFFMANN-LA ROCHE INC., priority 2012, published 2015)
